In article PMC10185643, “Improved LC–MS identification of short homologous peptides using sequence-specific retention time predictors” (Analytical and Bioanalytical Chemistry, 2023):

Assay: Reversed-phase LC-MS experimental retention time of short peptides
Type: physicochemical
Settings: for RT: experimental retention time, reversed-phase LC-MS, Table S1, column Source gives the peptide's origin (1-4 = synthesis route of homologous peptides, enzyme)
Protocol: All analyses were performed on an UltiMate 3000 RS chromatography system equipped with a UV detector, connected to a Q-Exactive Plus Hybrid Quadrupole-Orbitrap mass spectrometer (Thermo Fischer Scientific, Waltham, MA, USA). An Xselect Peptide CSH C18 130 Å column (particle size 2.5 µm, dimensions 150 × 2.1 mm, Waters, Etten-Leur, the Netherlands) with associated VanGuard pre-column was used for the separations. The analytes were eluted at a flow rate of 0.35 ml/min using a linear gradient of water (solvent A) and acetonitrile (solvent B) both fortified with 0.1% formic acid. […] The column temperature was maintained at 40 °C and the auto-sampler at 4 °C. The injection volume was 5 µL.
The sheath gas was set to 48 arbitrary units, the auxiliary gas was set to 11 arbitrary units, and the spray voltage was set to 3.7 kV. The mass spectrometer was set to operate in full-scan MS data-dependent MS^2 (ddMS^2) mode. Full-scan spectra were acquired at a resolution of 70.000 in the m/z range 80–1200 using a maximum ion injection time of 100 ms, unless stated otherwise. […] The maximum injection time was set to 150 ms, and a normalized stepped collision energy was applied of 15, 30 and 45 arbitrary units.

CPFD
RT (retention time) (Table S1, Source: enzyme, experimental reversed-phase LC-MS retention time, decimal comma): 13,62

CLVR
RT: 4,57

KCEVF
RT: 4,52
